Experimental data taken from EPA's ToxRefDB 2.

Tests used:
[1] = system: rat; settings: Prenatal developmental toxicity study, sprague dawley, Oral, Gavage/Intubation, dose end: 15 GD
[2] = system: rabbit; settings: Prenatal developmental toxicity study, new zealand white, Oral, Gavage/Intubation, dose end: 19 GD, group: maternal
[3] = system: rat; settings: Combined chronic toxicity/carcinogenicity, sprague dawley, Oral, Gavage/Intubation, dose end: 104 week
[4] = system: rat; settings: Multigenerational reproductive toxicity study, sprague dawley, Oral, Gavage/Intubation, dose end: 2 generation
[5] = system: mouse; settings: Carcinogenicity; cd1; Oral; Feed; dose end: 18 month; group: systemic; systemic / in life observation / body weight / body weight + systemic / in life observation / body weight / body weight gain
[6] = system: rat; settings: Subchronic oral toxicity in rodents, sprague dawley, Gavage/Intubation, dose end: 90 day
[7] = system: mouse; settings: Combined chronic toxicity/carcinogenicity, b6c3f1, Oral, Gavage/Intubation, dose end: 104 week, group: systemic
[8] = system: rat; settings: Fertility (Segment I), sprague dawley, Oral, Gavage/Intubation, dose end: 0 day
[9] = system: rat; settings: Subchronic oral toxicity in rodents, fischer, Gavage/Intubation, dose end: 13 week, group: systemic
[10] = system: rat; settings: Multigenerational reproductive toxicity study, sprague dawley, Oral, Gavage/Intubation, dose end: 2 generation; remark: listed apart in the source
[11] = system: rat; settings: Combined chronic toxicity/carcinogenicity, fischer, Oral, Gavage/Intubation, dose end: 105 week, group: systemic
[12] = system: mouse; settings: Subchronic oral toxicity in rodents, b6c3f1, Gavage/Intubation, dose end: 13 week, group: systemic
[13] = group: developmental, developmental / developmental malformation / ureter / distended
[14] = group: maternal, systemic / in life observation / clinical signs / general pallor + systemic / in life observation / clinical signs / pale and/or opaque eyes…
[15] = reproductive / offspring survival early / offspring survival early other / NOS
[16] = group: cholinesterase, cholinesterase / cholinesterase / cholinesterase / brain cholinesterase (che) + cholinesterase / cholinesterase / cholinesterase / plasma …
[17] = group: cholinesterase, cholinesterase / cholinesterase / cholinesterase / erythrocyte cholinesterase (che)
[18] = group: systemic, systemic / pathology microscopic / liver / adenoma/carcinoma combined
[19] = group: cholinesterase, cholinesterase / cholinesterase / cholinesterase / plasma cholinesterase (che)
[20] = group: offspring, developmental / offspring survival late / lactation index / lactation index + developmental / offspring survival late / viability index / …
[21] = group: offspring, systemic / in life observation / body weight / offspring (pup) weight
[22] = group: reproductive, reproductive / reproductive performance / estrous cycle / corpora lutea
[23] = group: reproductive, reproductive / reproductive performance / estrous cycle / corpora lutea + reproductive / reproductive performance / fertility / fertility + …
[24] = group: cholinesterase, cholinesterase / cholinesterase / cholinesterase / plasma cholinesterase (che) + cholinesterase / cholinesterase / cholinesterase / brain …
[25] = group: systemic, systemic / in life observation / clinical signs / pupillary function (dilation or constriction)
[26] = group: systemic, systemic / in life observation / clinical signs / pupillary function (dilation or constriction) + systemic / in life observation / body …
[27] = systemic / pathology microscopic / liver / eosinophilic focus + systemic / pathology microscopic / liver / clear cell focus
[28] = systemic / pathology microscopic / liver / eosinophilic focus + systemic / pathology microscopic / liver / clear cell focus + systemic / …
[29] = group: maternal, reproductive / reproductive performance / fertility / fertility
[30] = group: parental, systemic / in life observation / body weight / body weight gain + systemic / in life observation / food consumption / food consumption + …
[31] = group: parental, systemic / pathology microscopic / testes / delayed spermiation, retained spermatids + systemic / pathology microscopic / testes / immature …
[32] = systemic / in life observation / body weight / body weight + systemic / pathology gross / sperm measure / sperm motility
[33] = systemic / in life observation / body weight / body weight + systemic / pathology microscopic / pituitary gland / hyperplasia + systemic / …
[34] = group: parental, systemic / in life observation / body weight / body weight + systemic / in life observation / body weight / dam weight + systemic / in life …
[35] = group: parental, systemic / in life observation / water consumption / water consumption + systemic / pathology gross / sperm measure / sperm morphology
[36] = group: reproductive, reproductive / offspring survival early / live fetuses / live fetuses
[37] = group: reproductive, reproductive / offspring survival early / live fetuses / live fetuses + reproductive / reproductive performance / gestational length / …
[38] = systemic / pathology microscopic / kidney / mineralization + systemic / pathology microscopic / kidney / nephropathy
[39] = systemic / clinical chemistry / thyroxine (t4) / thyroxine (t4), total + systemic / hematology / reticulocyte / reticulocyte + systemic / …

In the case of `O=C1c2ccccc2C(=O)C1C(=O)C(c1ccccc1)c1ccc(Cl)cc1` (centres undefined) [Chlorophacinone], the LEL [1, 13] is reported as 0.0125 mg/kg/day, the LOAEL [1, 13] is reported as 0.0125 mg/kg/day and the NEL [1, 13] is reported as under 0.0125 mg/kg/day. For the same molecule, the NOAEL [1, 13] was under 0.0125 mg/kg/day, the LEL [1, 14] was 0.1 mg/kg/day and the LOAEL [1, 14] was 0.1 mg/kg/day. It also gave an NEL [1, 14] of 0.05 mg/kg/day, an NOAEL [1, 14] of 0.05 mg/kg/day and an LOAEL [2, 15] of 0.025 mg/kg/day. The NOAEL [2, 15] was 0.01 mg/kg/day, the LEL ([2]; reproductive / offspring survival early / offspring survival early other / NOS + systemic / in life observation / clinical signs / red or …) was 0.025 mg/kg/day and the NEL ([2]; systemic / in life observation / clinical signs / red or crusty deposits around eyes, ears, nose, or mouth + systemic / in life observation…) was 0.01 mg/kg/day.
`COC(=O)C=C(C)OP(=O)(OC)OC` [Mevinphos] was tested, and the LOAEL [3, 16] was 0.35 mg/kg/day, the NOAEL [3, 16] was 0.025 mg/kg/day and the LEL [3, 17] was 0.025 mg/kg/day. It also gave an NEL [3, 17] of under 0.025 mg/kg/day, an LEL [3, 18] of 0.6 mg/kg/day and an LOAEL [3, 18] of over 0.6 mg/kg/day. It also gave an NEL [3, 18] of 0.35 mg/kg/day, an NOAEL [3, 18] of at least 0.6 mg/kg/day and an LEL [4, 19] of 0.05 mg/kg/day. The LOAEL [4, 19] was 0.05 mg/kg/day, the NEL [4, 19] was under 0.05 mg/kg/day and the NOAEL [4, 19] was under 0.05 mg/kg/day. For the same molecule, the LOAEL [4, 20] was over 0.5 mg/kg/day, the NOAEL [4, 20] was at least 0.5 mg/kg/day and the LEL [4, 21] was 0.05 mg/kg/day. It also gave an NEL [4, 21] of under 0.05 mg/kg/day, an NEL ([4]; group: parental, systemic / in life observation / clinical signs / ataxia + systemic / in life observation / clinical signs / oral discharge + systemic / in …) of 0.1 mg/kg/day and an NOAEL ([4]; group: parental, systemic / organ weight / ovary / relative to body weight + systemic / in life observation / body weight / body weight) of 0.1 mg/kg/day. For the same molecule, the LOAEL ([4]; group: parental, systemic / organ weight / ovary / relative to body weight + systemic / organ weight / testes / absolute) was 0.5 mg/kg/day, the LEL ([4]; group: parental, systemic / organ weight / ovary / relative to body weight + systemic / organ weight / testes / absolute + systemic / in life observation / …) was 0.5 mg/kg/day and the NEL [4, 22] was 0.1 mg/kg/day. For the same molecule, the NOAEL [4, 22] was 0.1 mg/kg/day, the LEL [4, 23] was 0.5 mg/kg/day and the LOAEL [4, 23] was 0.5 mg/kg/day. The LEL [5] was 3.7 mg/kg/day, the LOAEL [5] was 3.7 mg/kg/day and the NEL [5] was 1.5 mg/kg/day. For the same molecule, the NOAEL [5] was 1.5 mg/kg/day, the LEL [6, 19] was 0.056 mg/kg/day and the LOAEL [6, 19] was 0.056 mg/kg/day. The NEL [6, 24] was 0.011 mg/kg/day, the NOAEL [6, 24] was 0.011 mg/kg/day and the LEL [6, 25] was 0.056 mg/kg/day. For the same molecule, the LOAEL [6, 25] was 0.056 mg/kg/day, the NEL [6, 26] was 0.011 mg/kg/day and the NOAEL [6, 26] was 0.011 mg/kg/day.
Work on `O=C(O)c1cc(N=Nc2ccc(S(=O)(=O)Nc3ccccn3)cc2)ccc1O` [Sulfasalazine] yielded an LOAEL [7, 27] of 675 mg/kg/day, an NOAEL [7, 27] of under 675 mg/kg/day and an LEL [7, 28] of 675 mg/kg/day. The NEL [7, 28] was under 675 mg/kg/day, the LEL [8, 29] was 600 mg/kg/day and the LOAEL [8, 29] was over 600 mg/kg/day. For the same molecule, the NEL [8, 29] was 300 mg/kg/day, the NOAEL [8, 29] was at least 600 mg/kg/day and the LOAEL [8, 30] was over 600 mg/kg/day. It also gave an NOAEL [8, 30] of at least 600 mg/kg/day, an LEL [8, 31] of 150 mg/kg/day and an NEL [8, 31] of under 150 mg/kg/day. The LEL [9, 32] was 84 mg/kg/day, the NEL [9, 32] was under 84 mg/kg/day and the LOAEL [9, 33] was 338 mg/kg/day. The NOAEL [9, 33] was 169 mg/kg/day, the LEL [10, 21] was 100 mg/kg/day and the LOAEL [10, 21] was over 400 mg/kg/day. The NEL [10, 21] was under 100 mg/kg/day, the NOAEL [10, 21] was at least 400 mg/kg/day and the LOAEL [10, 34] was over 400 mg/kg/day. The NOAEL [10, 34] was at least 400 mg/kg/day, the LEL [10, 35] was 100 mg/kg/day and the NEL [10, 35] was under 100 mg/kg/day. For the same molecule, the LEL [10, 36] was 100 mg/kg/day, the NEL [10, 36] was under 100 mg/kg/day and the LOAEL [10, 37] was over 400 mg/kg/day. The NOAEL [10, 37] was at least 400 mg/kg/day, the NOAEL ([11]; systemic / organ weight / kidney / absolute + systemic / pathology microscopic / kidney / hyperplasia) was 168 mg/kg/day and the LOAEL ([11]; systemic / organ weight / kidney / absolute + systemic / pathology microscopic / kidney / hyperplasia + systemic / in life observation / …) was 338 mg/kg/day. The LEL [11, 38] was 84 mg/kg/day, the NEL [11, 38] was under 84 mg/kg/day and the LEL [12, 39] was 675 mg/kg/day. It also gave an NEL [12, 39] of under 675 mg/kg/day, an LOAEL ([12]; systemic / pathology microscopic / liver / hypertrophy) of 1350 mg/kg/day and an NOAEL ([12]; systemic / pathology microscopic / liver / hypertrophy + systemic / clinical chemistry / alanine aminotransferase (alt/sgpt) / alanine …) of 675 mg/kg/day.
